How the values were obtained:
HmuS [1] = biological target: T1, HmuS (Bacteroides thetaiotaomicron, UniProt A0A0P0FP54); assay: cryo-EM structure at […] Å with heme; UV/vis hemin titration (Kd); HPLC turnover to PPIX; assay type: binding
T1 construct: gene GAN91_17490; soluble HmuS without its predicted N- and C-terminal membrane-anchoring helices
T1 sequence (A0A0P0FP54 28-1433 limits assumed): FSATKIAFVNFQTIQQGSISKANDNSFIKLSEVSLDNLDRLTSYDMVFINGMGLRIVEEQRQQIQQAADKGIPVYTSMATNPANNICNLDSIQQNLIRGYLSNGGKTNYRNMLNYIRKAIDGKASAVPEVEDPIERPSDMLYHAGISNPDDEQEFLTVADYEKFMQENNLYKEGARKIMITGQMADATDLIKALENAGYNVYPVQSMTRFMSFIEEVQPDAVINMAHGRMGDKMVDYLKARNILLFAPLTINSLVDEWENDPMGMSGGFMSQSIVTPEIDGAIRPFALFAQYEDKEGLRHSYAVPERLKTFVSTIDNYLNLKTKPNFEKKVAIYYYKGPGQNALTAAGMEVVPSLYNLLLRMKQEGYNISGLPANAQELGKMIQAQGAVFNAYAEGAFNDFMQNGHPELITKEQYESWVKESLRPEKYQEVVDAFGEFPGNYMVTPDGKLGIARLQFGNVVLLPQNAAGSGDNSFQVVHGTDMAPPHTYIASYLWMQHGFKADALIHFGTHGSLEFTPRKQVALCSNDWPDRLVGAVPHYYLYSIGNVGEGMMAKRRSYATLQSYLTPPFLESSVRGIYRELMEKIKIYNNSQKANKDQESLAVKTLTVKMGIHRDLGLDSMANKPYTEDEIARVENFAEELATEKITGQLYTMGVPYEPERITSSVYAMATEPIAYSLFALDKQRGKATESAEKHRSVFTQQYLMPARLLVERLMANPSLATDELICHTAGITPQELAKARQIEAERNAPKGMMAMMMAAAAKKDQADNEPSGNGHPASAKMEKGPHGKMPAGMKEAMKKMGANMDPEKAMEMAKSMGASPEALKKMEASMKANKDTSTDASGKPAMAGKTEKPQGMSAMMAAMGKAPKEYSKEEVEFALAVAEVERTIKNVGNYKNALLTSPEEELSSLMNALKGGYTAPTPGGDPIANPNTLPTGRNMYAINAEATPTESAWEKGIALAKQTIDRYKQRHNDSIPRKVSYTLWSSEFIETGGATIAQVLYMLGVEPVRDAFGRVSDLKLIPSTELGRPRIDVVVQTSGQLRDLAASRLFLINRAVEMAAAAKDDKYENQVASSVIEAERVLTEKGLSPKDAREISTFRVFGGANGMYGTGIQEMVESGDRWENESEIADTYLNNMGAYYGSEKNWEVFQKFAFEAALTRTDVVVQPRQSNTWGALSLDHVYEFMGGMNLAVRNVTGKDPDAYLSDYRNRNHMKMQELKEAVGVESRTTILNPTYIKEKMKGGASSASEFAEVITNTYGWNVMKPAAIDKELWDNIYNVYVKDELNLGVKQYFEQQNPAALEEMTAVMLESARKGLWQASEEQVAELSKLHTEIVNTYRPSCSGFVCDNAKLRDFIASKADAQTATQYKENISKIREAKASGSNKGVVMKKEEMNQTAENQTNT

HmuS [2] = biological target: T2, HmuS (Bacteroides thetaiotaomicron, UniProt A0A0P0FP54, H538A); assay: UV/vis hemin titration of purified mutant; no turnover to PPIX; assay type: binding
T2 construct: gene GAN91_17490; soluble HmuS without its predicted N- and C-terminal membrane-anchoring helices

## C=CC1=C(C)C2=Cc3c(C=C)c(C)c4[n]3[Fe][n]3c(c(C)c(CCC(=O)O)c3=CC3=NC(=C4)C(C)=C3CCC(=O)O)=CC1=N2 [heme]
HmuS [1]
  Kd: 6 ± 6 µM
HmuS [2]
  Kd: 1.4 ± 0.1 µM

Reference: paper PMC12583661, “Commensal gut bacteria employ de-chelatase HmuS to harvest iron from heme” (The EMBO Journal, 2025)
